Results published in patent publication US8916572B2, “Bis-quinazoline derivatives as inhibitors for epidermal growth factor receptor (EGFR) tyrosine kinase” (Tetranov International, Inc., priority 2012, dated 2014).

Tested on: human lung adenocarcinoma epithelial cell line A549
Assay: Growth inhibition in vitro of human tumor cell line A549 (MTT assay)
Type: cell-based
Conditions: for IC50: Homo sapiens, A549 cells, MTT assay, 24 hours incubation, read-out: IC 50, tumor cell growth inhibition in human tumor cell line A549
Description: Growth Inhibition In Vitro of Human Tumor Cell Line A549 by Examples:
Human lung adenocarcinoma epithelial cell line A549 was obtained from American Type Culture Collection (ATCC) and maintained in Dulbecco modified eagle medium supplemented with 10% fetal bovine serum. MTT assay was performed using the MTT cell proliferation assay kit (ATCC). Briefly, 3×10^3 A549 cells/well were plated in 96 well plates overnight and then incubated with different concentrations of tested compounds or vehicle controls for 24 hours. Ten μl of MTT reagent was added to each well for 120 min. The formazan crystal was dissolved with MTT detergent, and the OD value was measured at 570 nm using a SpectraMax M3 microplate reader (Molecular Devices). Data were normalized to vehicle controls and processed using GraphPad Prism 5.00.

Row | IC50 [µM] | Compound | in vitro activity compared to Erlotinib in cell line A549 (human lung adenocarcinoma epithelial cell line A549, comparison in words)
1 | 9.9 | C#Cc1cccc(Nc2ncnc3cc(OCCOC)c(OCCOC)cc23)c1 [Erlotinib, reference compound] | –
2 | > 80 | C#Cc1cccc(Nc2ncnc3cc(OCCOCCOCCOCCOc4cc5ncnc(Nc6cccc(C#C)c6)c5cc4OCCOC)c(OCCOC)cc23)c1 [dimer 1, 7,7′-((((oxybis(ethane-2,1-diyl))bis(oxy))bis(ethane-2,1-diyl))bis(oxy))bis(N-(3-ethynylphenyl)-6-(2-methoxyethoxy)quinazolin-4-amine)] | –
3 | 5.1 | C#Cc1cccc(Nc2ncnc3cc(OCCOC)c(OCCOCCOCCOCCOc4cc5c(Nc6cccc(C#C)c6)ncnc5cc4OCCOC)cc23)c1 [dimer 2, 6,6′-((((oxybis(ethane-2,1-diyl))bis(oxy))bis(ethane-2,1-diyl))bis(oxy))bis(N-(3-ethynylphenyl)-7-(2-methoxyethoxy)quinazolin-4-amine)] | higher activity than Erlotinib
4 | > 80 | C#Cc1cccc(Nc2ncnc3cc(OCCOCCOCCOCCOc4cc5c(Nc6cccc(C#C)c6)ncnc5cc4OCCOC)c(OCCOC)cc23)c1 [dimer 3, N-(3-ethynylphenyl)-6-(2-(2-(2-(2-((4-((3-ethynylphenyl)amino)-6-(2-methoxyethoxy)quinazolin-7-yl)oxy)ethoxy)ethoxy)ethoxy)ethoxy)-7-(2-methoxyethoxy)quinazolin-4-amine] | –
